In ChEMBL document CHEMBL1152216, “Pyrazino[1,2-b]isoquinolines: synthesis and study of their cytostatic and cytotoxic properties” (2008):
One block for each molecule: values may come before it. Activity calls are given as the source filed them. The rule behind the calls is not given here.

Key:
[1] = tested on: MDA-MB-231; assay: Growth inhibition of human MDA-MB-231 cells after 48 hrs by MTT assay; assay type: functional; conditions: MDA-MB-231, 48 h
[2] = tested on: HT-29; assay: Growth inhibition of human HT-29 cells after 48 hrs by MTT assay; assay type: functional; conditions: HT-29, 48 h
[3] = tested on: A549; assay: Growth inhibition of human A549 cells after 48 hrs by MTT assay; assay type: functional; conditions: A549, 48 h
[4] = tested on: A549; assay: Cytotoxicity against human A549 cells after 48 hrs by MTT assay; assay type: functional; conditions: A549, 48 h
[5] = tested on: HT-29; assay: Cytotoxicity against human HT-29 cells after 48 hrs by MTT assay; assay type: functional; conditions: HT-29, 48 h, read-out: LC50 (the source's name)
[6] = tested on: A549; assay: Induction of apoptosis in human A549 cells at 50 uM after 48 hrs by propidium iodide staining; assay type: functional, cell-based
[7] = tested on: A549; assay: Cell cycle arrest in human A549 cells assessed as decrease in accumulation at G2/M phase at […] after 48 hrs by flow cytometry; assay type: functional, cell-based
[8] = tested on: A549; assay: Cell cycle arrest in human A549 cells assessed as increase in accumulation at G1 phase at […] after 48 hrs by flow cytometry; assay type: functional, cell-based
[9] = tested on: A549; assay: Induction of DNA cleavage in human A549 cells assessed as H2AX phosphorylation at 50 uM after 24 hrs by Western blot; assay type: functional, cell-based
[10] = tested on: A549; assay: Induction of DNA cleavage in human A549 cells assessed as CHK2 Ser19 phosphorylation at 50 uM after 24 hrs by Western blot; assay type: functional, cell-based
[11] = tested on: A549; assay: Induction of DNA cleavage in human A549 cells assessed as p53 Ser15 phosphorylation at 50 uM after 24 hrs by Western blot; assay type: functional, cell-based
[12] = tested on: A549; assay: Induction of apoptosis in human A549 cells assessed as JNK activation at 50 uM after 24 hrs by Western blot; assay type: functional, cell-based
[13] = tested on: A549; assay: Induction of apoptosis in human A549 cells assessed as p38 activation at 50 uM after 24 hrs by Western blot; assay type: functional, cell-based
[14] = tested on: A549; assay: Induction of apoptosis in human A549 cells assessed as AKT signaling pathway activation at 50 uM after 24 hrs by Western blot; assay type: functional, cell-based
[15] = tested on: A549; assay: Cell cycle arrest in human A549 cells assessed as decrease in accumulation at G1 phase at […] after 48 hrs by flow cytometry; assay type: functional, cell-based
[16] = tested on: MDA-MB-231; assay: Cytotoxicity against human MDA-MB-231 cells after 48 hrs by MTT assay; assay type: functional; conditions: MDA-MB-231, 48 h, read-out: LC50 (the source's name)

GI50 [1]: 11.9 µM
GI50 [2]: 3.67 µM
SMILES: COc1c(C)c(OC)c(OC)c2c1C=C1CN(C)CC(=O)N1[C@H]2CN1Cc2ccccc2C1=O

SMILES: COc1c(C)c(OC)c(OC)c2c1C[C@H]1CNCC(=O)N1[C@H]2COCc1ccccc1 (relative stereo)
GI50 [3]: 13.4 µM
TGI [3]: > 23.4 µM
LC50 [4]: > 23.4 µM

SMILES: COc1c(C)c(OC)c(OC)c2c1C[C@H]1CN(C)CC(=O)N1[C@H]2COCc1ccccc1 (relative stereo)
GI50 [3]: 12.7 µM
TGI [3]: > 22.7 µM
LC50 [4]: > 22.7 µM

GI50 [3]: 8.19 µM
GI50 [2]: 10.5 µM
SMILES: COc1c(C)c(OC)c(OC)c2c1C[C@@H]1CN(C(=O)OC(C)C)CC(=O)N1[C@H]2COCc1ccccc1 (relative stereo)
TGI [3]: 16.8 µM

SMILES: COc1c(C)c(OC)c(OC)c2c1C[C@H]1CN(C(=O)OC(C)C)CC(=O)N1[C@H]2COCc1ccccc1 (relative stereo)
GI50 [1]: 1.09 µM
GI50 [3]: 0.449 µM
TGI [3]: 1.89 µM
GI50 [2]: 0.195 µM
TGI [2]: 0.273 µM
CC50 [5]: 0.527 µM

GI50 [3]: 9.05 µM
GI50 [2]: 9.23 µM
SMILES: COc1c(C)c(OC)c(OC)c2c1C[C@H]1CN(C(=O)OC(C)C)CC(=O)N1[C@H]2COC(=O)/C=C/c1ccccc1 (relative stereo)
Activity [6]: Active
Activity [7]: Active
Activity [8]: Active
Activity [9]: inactive
Activity [10]: inactive
Activity [11]: inactive
Activity [12]: inactive
Activity [13]: inactive
Activity [14]: inactive

SMILES: COc1c(C)c(OC)c(OC)c2c1C[C@H]1[C@@H](O)N(C(=O)OC(C)C)CC(=O)N1[C@H]2COCc1ccccc1 (relative stereo)
Activity [6]: Active
Activity [15]: Active
GI50 [1]: 9.27 µM
TGI [1]: 15.3 µM
GI50 [3]: 5.68 µM
TGI [3]: 11.7 µM
LC50 [4]: 17.4 µM
GI50 [2]: 8.32 µM
TGI [2]: 9.84 µM
Activity [7]: Active
Activity [9]: inactive
Activity [10]: inactive
Activity [11]: inactive
Activity [12]: inactive
Activity [13]: inactive
Activity [14]: inactive

SMILES: COc1c(C)c(OC)c(OC)c2c1C[C@H]1[C@H](C#N)N3C([C@@H]4O[C@H]5c6ccccc6[C@H](C#N)N5C[C@H]3c3c(OC)c(OC)c(C)c(OC)c34)[C@@H]2N1C (relative stereo)
GI50 [1]: 11.4 µM
TGI [1]: 12 µM
CC50 [16]: 12.8 µM
GI50 [3]: 11.4 µM
TGI [3]: 12 µM
LC50 [4]: 12.7 µM
GI50 [2]: 7.35 µM
TGI [2]: 8.22 µM
CC50 [5]: 10.2 µM
Activity [9]: inactive
Activity [10]: inactive
Activity [11]: inactive
Activity [12]: inactive
Activity [13]: inactive
Activity [14]: inactive

GI50 [3]: 2.91 µM
GI50 [2]: 10.4 µM
SMILES: COc1c(C)c(OC)c2c(c1OC)[C@@H]1CN3C(=O)c4ccccc4[C@@H]3O[C@H]2C2=CN(C(=O)OC(C)C)CC(=O)N21 (relative stereo)

SMILES: COc1c(C)c(OC)c(OC)c2c1C[C@H]1[C@@H](O)N(C(=O)OC(C)(C)C)CC(=O)N1[C@H]2COCc1ccccc1 (relative stereo)
GI50 [1]: 12 µM
TGI [1]: > 18.4 µM
CC50 [16]: > 18.4 µM
GI50 [3]: 4.79 µM
TGI [3]: 17.5 µM
LC50 [4]: > 18.4 µM
GI50 [2]: 14.4 µM
TGI [2]: > 18.4 µM
CC50 [5]: > 18.4 µM

SMILES: COc1cc2c(cc1O)CCN[C@]21CS[C@@H]2c3c(OC(C)=O)c(C)c4c(c3[C@H](COC1=O)N1[C@@H]2[C@H]2c3c(cc(C)c(OC)c3O)C[C@@H]([C@@H]1O)N2C)OCO4 [TRABECTEDIN]
GI50 [1]: 0.0551 µM
TGI [1]: 0.0578 µM
GI50 [3]: 0.125 µM
TGI [3]: 0.131 µM
GI50 [2]: 0.0517 µM
TGI [2]: 0.063 µM
